Test: Determination of plasma exposure of test compounds in rats (LC/MS of plasma after oral dosing)
Assay type: in vivo, rat (male F-344)
Details: for AUC / Cmax / Tmax: male, F-344, rat, rats, oral administration of a 30 mg/kg dose; for AUC: n = 3, read-out: AUC (area under the curve); for Cmax: n = 3, read-out: Cmax (maximum concentration of test compound); for Tmax: n = 3, read-out: tmax (time at which maximum concentration resulted); for concentration at 0.5 h / concentration at 1 h / concentration at 2 h / concentration at 6 h: rat, male F-344 rats, 30 mg/kg oral by gavage, suspension, n = 3
Procedure: General Procedure for Determination of Plasma Exposure of Test Compounds in Rats
Each compound was administered as a suspension in a vehicle consisting of 5% ethanol, 95% of a mixture of 0.5% each Polysorbate 80/sodium carboxymethylcellulose in water. Three male F-344 rats were dosed orally at 30 mg/kg by gavage and blood collected by orbital venapuncture under isoflurane anesthesia at 0.5, 1, and 2 hours after dosing into sodium heparinized containers. The final 6 hour timepoint was collected by cardiac puncture into sodium heparinized containers. Plasma was collected after brief centrifugation and frozen at −70° C. until assay. Plasma samples were assayed by LC/MS using standards prepared by spiking plasma with the compound of interest.

AUC | Cmax | Tmax | concentration at 0.5 h | concentration at 1 h | concentration at 2 h | concentration at 6 h | Compound
5596 ± 14 ng·h/mL | 1490 ng/mL | 30 min | 1491 ± 12 ng/mL | 1170 ± 134 ng/mL | 1040 ± 62 ng/mL | 693 ± 136 ng/mL | CC(C)S(=O)(=O)NC[C@H](C)c1ccc(NC(=O)c2cc(F)cc(F)c2)cc1 [Compound B, N-[4-((1R)-1-methyl-2-{[(methylethyl)sulfonyl]amino}ethyl)phenyl](3,5-difluorophenyl)carboxamide]
1440 ± 227 ng·h/mL | 473 ng/mL | 30 min | 473 ± 100 ng/mL | 333 ± 53 ng/mL | 329 ± 62 ng/mL | 67 ± 17 ng/mL | CC(CNS(=O)(=O)C(C)C)c1ccc(NC(=O)c2ccc(F)cc2F)cc1 (centres unmarked) [Compound A, N-[4-(1-methyl-2-{[(methylethyl)sulfonyl]amino}ethyl)phenyl](2,4-difluorophenyl)carboxamide]
